# Laboratory results: article doi:10.1101/2023.10.20.563248v1 (biorxiv, 2023)
# pEC50: −log10 of the molar value.
# Key:
# [1] = target: MST2 (full-length, NanoLuc fusion) (Homo sapiens, UniProt Q13188); experiment: NanoBRET tracer displacement, HEK293T; format: cell-based; settings: intact cells; […] °C, […] h; competitive with tracer
# [2] = target: MST1 (full-length, NanoLuc fusion) (Homo sapiens, UniProt Q13043); experiment: NanoBRET tracer displacement, HEK293T; format: cell-based; settings: intact cells; […] °C, […] h; competitive with tracer
# MST1 (full-length, NanoLuc fusion), sequence (Q13043 whole entry, the tested form may be a part): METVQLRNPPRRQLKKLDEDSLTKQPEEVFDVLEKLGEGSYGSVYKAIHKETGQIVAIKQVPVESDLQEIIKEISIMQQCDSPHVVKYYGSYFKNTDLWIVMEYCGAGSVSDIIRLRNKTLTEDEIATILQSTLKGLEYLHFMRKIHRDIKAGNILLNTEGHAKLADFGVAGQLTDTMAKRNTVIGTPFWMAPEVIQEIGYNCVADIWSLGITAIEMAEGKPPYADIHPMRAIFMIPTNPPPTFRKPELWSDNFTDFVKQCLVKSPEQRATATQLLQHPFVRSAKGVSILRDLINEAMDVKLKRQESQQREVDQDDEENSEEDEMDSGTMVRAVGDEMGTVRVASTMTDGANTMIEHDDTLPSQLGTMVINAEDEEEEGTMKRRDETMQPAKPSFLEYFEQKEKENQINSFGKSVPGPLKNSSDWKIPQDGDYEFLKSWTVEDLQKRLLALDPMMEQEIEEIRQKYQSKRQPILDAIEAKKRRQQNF
# [3] = target: MST3 (full-length, NanoLuc fusion) (Homo sapiens, UniProt Q9Y6E0); experiment: cell-based
# MST3 (full-length, NanoLuc fusion), sequence (Q9Y6E0 whole entry, the tested form may be a part): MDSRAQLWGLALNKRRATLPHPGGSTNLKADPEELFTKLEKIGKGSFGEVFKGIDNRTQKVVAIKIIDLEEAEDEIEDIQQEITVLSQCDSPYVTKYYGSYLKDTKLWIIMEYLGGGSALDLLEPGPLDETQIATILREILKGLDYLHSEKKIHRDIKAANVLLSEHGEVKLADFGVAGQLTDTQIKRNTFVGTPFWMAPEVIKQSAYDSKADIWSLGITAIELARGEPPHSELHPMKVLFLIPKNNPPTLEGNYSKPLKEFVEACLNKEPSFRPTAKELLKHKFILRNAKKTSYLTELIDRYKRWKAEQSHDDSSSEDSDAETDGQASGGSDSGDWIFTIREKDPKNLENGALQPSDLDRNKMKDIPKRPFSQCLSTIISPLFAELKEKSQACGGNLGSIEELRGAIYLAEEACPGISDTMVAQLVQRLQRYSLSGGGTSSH
# [4] = target: MST4 (full-length, NanoLuc fusion) (Homo sapiens, UniProt Q9P289); experiment: NanoBRET tracer displacement, HEK293T; format: cell-based; settings: intact cells; […] °C, […] h; competitive with tracer
# MST4 (full-length, NanoLuc fusion), sequence (Q9P289 whole entry, the tested form may be a part): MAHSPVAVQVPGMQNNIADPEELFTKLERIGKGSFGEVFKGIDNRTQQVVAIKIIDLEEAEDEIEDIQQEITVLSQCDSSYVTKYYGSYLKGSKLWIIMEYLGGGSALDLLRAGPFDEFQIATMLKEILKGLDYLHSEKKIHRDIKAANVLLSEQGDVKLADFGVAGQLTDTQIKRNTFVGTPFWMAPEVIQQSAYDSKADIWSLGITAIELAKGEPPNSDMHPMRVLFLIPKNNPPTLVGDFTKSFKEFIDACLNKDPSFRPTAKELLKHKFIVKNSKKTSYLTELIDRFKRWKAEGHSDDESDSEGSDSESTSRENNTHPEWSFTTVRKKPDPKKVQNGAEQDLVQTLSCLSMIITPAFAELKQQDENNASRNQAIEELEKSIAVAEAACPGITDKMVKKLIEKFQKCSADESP
# MST2 (full-length, NanoLuc fusion), sequence (Q13188 whole entry, the tested form may be a part): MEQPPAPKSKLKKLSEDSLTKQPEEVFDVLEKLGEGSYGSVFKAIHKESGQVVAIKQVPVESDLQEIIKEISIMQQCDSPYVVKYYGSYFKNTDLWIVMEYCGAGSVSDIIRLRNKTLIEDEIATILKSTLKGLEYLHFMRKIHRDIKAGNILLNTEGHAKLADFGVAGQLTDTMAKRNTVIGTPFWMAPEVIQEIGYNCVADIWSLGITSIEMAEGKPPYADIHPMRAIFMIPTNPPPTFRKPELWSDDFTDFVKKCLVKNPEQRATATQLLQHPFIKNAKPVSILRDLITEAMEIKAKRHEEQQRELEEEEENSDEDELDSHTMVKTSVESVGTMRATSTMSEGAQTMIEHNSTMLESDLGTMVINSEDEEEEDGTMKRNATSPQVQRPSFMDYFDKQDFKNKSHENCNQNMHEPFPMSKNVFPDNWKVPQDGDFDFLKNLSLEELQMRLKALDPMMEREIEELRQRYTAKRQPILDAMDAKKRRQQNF
pEC50 [3],pEC50 [4],Structure (SMILES),pEC50 [1],pEC50 [2]
,,"N#CCc1ccc(Nc2nccc(Nc3cc(C4CC4)[nH]n3)n2)cc1 [compound 1, 1]",6.96,6.70
5.74,5.62,"O=C1NCCCCCCNc2nc(c3ccccc3n2)Nc2cc1[nH]n2 [21e, (Z)-3^1H-2,5,12-triaza-1(4,2)-quinazolina-3(3,5)-pyrazolacyclododecaphan-4-one]",,
